Test results taken from article PMC12040169 (PLOS Biology, 2025).

Test: in vitro
Conditions: human, hela cells

| Structure (SMILES) | viability at 28.5 h, 10 µM [%] |
| --- | --- |
| CN(Cc1ccc(-c2ccc(S(C)(=O)=O)cc2)nc1)C1CCN(C(=O)Oc2ccc(F)cc2)CC1 [CBK166097] | 91.5 |

Same assay, conditions: human, hela cells, % viability

| Structure (SMILES) | viability at 28.5 h, 10 µM [%] |
| --- | --- |
| COc1ccc(C2Nc3ccccc3C(=O)N2Cc2ccccc2)cc1COc1ccc([N+](=O)[O-])cc1 (stereo not shown) [CBK033690] | 86.9 |
| Cc1cccc(C)c1NC(=O)C(C)Sc1nc2ccccc2c(=O)n1CC1CCCO1 (stereo not shown) [CBK068151] | 95 |
| CCSc1ncc(Cl)c(C(=O)N(Cc2cccc(Br)c2)C2CCS(=O)(=O)C2)n1 (stereo not shown) [CBK268969] | 90.3 |
| CN(CCC#N)S(=O)(=O)c1ccc(Cl)c(Cl)c1 [CBK045396] | 91.8 |
| C=CCOc1c(CNc2cccc(C(=O)O)c2)cccc1OC [CBK074432] | 95.6 |
| COc1ccc2c(c1)cc(C(=O)NCCN1CCCCC1CO)n2C (stereo not shown) [CBK306621] | 114 |
| c1csc(C2Nc3ccccc3C3=NCCCN32)c1 (stereo not shown) [CBK284489] | 99.2 |
| Cc1ccc(CN(CCCN(C)C)Cc2nc(C)n3ccccc23)o1 [CBK282482] | 106 |
| NC(=O)C1CCN(C(=O)c2cc3c(=O)n4ccccc4nc3s2)CC1 [CBK296938] | 89.9 |
| COc1ccc([C@@]23CC[C@@H](NC(=O)Nc4ccc(F)c(F)c4)C[C@@H]2N(C)CC3)cc1O [CBK051630] | 88.3 |
| Cc1ncc(CO)c(CN)c1O [CBK278211C] | 86.8 |
| O=c1ncccn1[C@@H]1O[C@H](CO)[C@H](O)C1O (stereo partly shown) [CBK201195] | 94 |
| CN1CCOc2cc(S(=O)(=O)Nc3cccnc3N3CCOCC3)ccc21 [CBK062299] | 108 |
| O=C(Cn1cc(-c2ccc(CN3CCCCC3)cc2)nn1)NCc1ccc(OC(F)F)cc1 [CBK167514] | 96 |
| O=C(NCc1ccc(Cl)c(Cl)c1)N1CCN(c2cc(C(F)(F)F)ccn2)CC1 [CBK156434] | 94.3 |
| COCCCn1c(=O)[nH]c2ncc(-c3cccc(CO)c3)nc21 [CBK065104] | 99.4 |
| CCOC(=O)c1cn([C@H](CO)CCSC)cc(Oc2ccccc2)c1=O [CBK307349] | 98.9 |
| CC(Cc1cccs1)NC(=O)c1cc2c([nH]c1=O)CCCCC2 (stereo not shown) [CBK282523] | 109 |
| COc1ccc(CCNCC2OCCc3cccc(OC)c32)cc1OC (stereo not shown) [CBK024032C] | 118 |
| CSc1nccc(N2CCC(NCCn3c(C)cc(C)nc3=O)CC2)n1 [CBK307070] | 85.3 |
| CCOc1ccc(C(=O)Nc2ccc(S(=O)(=O)N3CCN(C)CC3)cc2)cc1 [CBK269959] | 85.5 |
| COc1cccc(CN2CCN(C(=O)c3cc(-c4ccncc4)nc4ccc(C)cc34)CC2)c1 [CBK267760] | 86 |

| Structure (SMILES) | viability at 28.5 h, 10 µM [%] |
| --- | --- |
| Cc1cccc2c3c([nH]c12)CCN(C(=O)C(C)N1CCOCC1)C3 (stereo not shown) [CBK281600] | 89.2 |
| CCc1nn(Cc2ccccn2)c(=O)c2cc3sc(C)cc3n12 [CBK284113] | 77 |
| N/C(Cc1ccc([N+](=O)[O-])cc1)=N\OC(=O)COc1cccc2ccccc12 [CBK262994] | 92.8 |
| Cc1cc(C)n(CC(=O)NCC(c2c(F)cccc2F)N(C)C)n1 (stereo not shown) [CBK305510] | 96.7 |
| Cc1nc2ccc(NC(=O)CC3CCN(S(=O)(=O)c4cccc(F)c4)CC3)cc2[nH]1 [CBK285903] | 88.8 |
| COc1ccc(C(CC(=O)c2ccc(C)cc2)Nc2ccc([N+](=O)[O-])cc2)cc1 (stereo not shown) [CBK268187] | 92.2 |
| CC(C)(C)OC(=O)COc1cc2oc(=O)cc(-c3ccccc3)c2cc1Cl [CBK263729] | 87.6 |
| O=C(NCCC1=CCCCC1)Nc1ccc(F)c(F)c1F [CBK043265] | 89.3 |
| Cn1cc(NC(=O)C2CCCN(c3ncccn3)C2)cn1 (stereo not shown) [CBK304394] | 108 |
| CCCC(=O)N1CCC(c2nc(C3CCCC3)no2)C1 (stereo not shown) [CBK285457] | 106 |
| Cc1ccc(CNc2oc(COc3ccc(Br)cc3)nc2C#N)cc1 [CBK074467] | 99.5 |
| FC(F)(F)c1ccc(CN2CCC(Oc3nccnc3OCc3cccnc3)CC2)cc1 [CBK083160T] | 91.6 |
| Cc1c(C(=O)NCc2ccccn2)nnn1-c1cccc(C(F)(F)F)c1 [CBK107395] | 92.9 |
| COCCNc1nc2c(c(N3CCCC(C#N)C3)n1)CCNCC2 (stereo not shown) [CBK307412] | 87.2 |
| CCCC/C=C/c1cncc(NCCO)n1 [CBK065419] | 109 |
| O=C(c1cnc[nH]1)N1CCn2nc(C(O)Cc3ccccc3)cc2C1 (stereo not shown) [CBK307558] | 109 |
| Cn1cc(CCCCNC(=O)Cc2c[nH]c3ccc(Cl)cc23)cn1 [CBK306364] | 76 |
| O=C(Nc1ccc([C@@H](O)[C@H]2COCC(=O)N2Cc2ccc(F)cc2)cc1)c1ccccc1 [CBK289061] | 86.1 |
| COc1cc2c(cc1OC)C1=NNC(=O)C1=NC(C)(C)C2 [CBK288353] | 22.3 |
| Cc1ccn2c(=O)c(C(=O)NCc3cccnc3N3CCOCC3)cnc2c1 [CBK298316] | 86.1 |
| CC1=C(C)CC(C(=O)Nc2sc3c(c2C(=O)OC(C)C)CCCC3)C(C(=O)O)C1 (stereo not shown) [CBK265428] | 87 |
| CC1CCc2nc(NC(=O)CC3CCN(C(=O)Cc4ccccc4)CC3)sc2C1 (stereo not shown) [CBK286509] | 86.4 |

| Structure (SMILES) | viability at 28.5 h, 10 µM [%] |
| --- | --- |
| CN1CCN(S(=O)(=O)c2ccc(-c3cnc(N)c(-c4ccc(O)cc4)n3)cc2F)CC1 [CBK131449] | 93.9 |
| O=C(c1ccccn1)c1ccccn1 [CBK010601] | 89 |
| Cn1c(SCc2ccc([N+](=O)[O-])cc2)nnc1C(O)c1ccccc1 (stereo not shown) [CBK269735] | 88.6 |
| O=C(NCc1ccccn1)C(=O)N/N=C/c1ccccc1[N+](=O)[O-] [CBK262204] | 96.4 |
| COCCOc1nc2ccccc2nc1C [CBK058489] | 103 |
| CC(c1ccncc1)N1Cc2cccc(C(=O)O)c2C1=O (stereo not shown) [CBK291137] | 97.4 |
| CC1CCc2c(sc3ncnc(SCC(=O)N(C)CCC#N)c23)C1 (stereo not shown) [CBK305896] | 106 |
| Cc1ccccc1-c1nnc(NC(=O)c2ccc(N3C(=O)CCC3=O)cc2)s1 [CBK287332] | 85.9 |
| Cc1cccc(N2CCN(CC(=O)Nc3ccc(S(N)(=O)=O)cc3)CC2)c1C [CBK269369] | 96.8 |
| NCCCNC(=O)c1ccc(-c2cccc(C(F)(F)F)c2)o1 [CBK107454] | 89.4 |
| Oc1cccc(/C=N/c2ccc(Cc3ccc(/N=C/c4cccc(O)c4)cc3)cc2)c1 [CBK261230] | 103 |
| CCCCCc1c(C)nc(-c2ccccn2)nc1O [CBK017441] | 86.4 |
| COc1ccc(N2CCN(c3cc(-c4cccc(NC(C)=O)c4)ncn3)CC2)cc1OC [CBK091029] | 96.4 |
| O=C(COc1ccc2ccccc2c1)Nc1ccc(S(=O)(=O)N2CCCCC2)cc1 [CBK263765] | 118 |
| CC(=O)Nc1ccc(-c2ccc(C(=O)NCc3ccc(OC(F)(F)F)cc3)cn2)cc1 [CBK158830] | 98.6 |
| OC(COc1ccc(-c2ccccc2)cc1)CN1CCN(Cc2ccccc2)CC1 (stereo not shown) [CBK074855C] | 94.6 |
| Cc1ccc(N2C(=O)N[C@@H]3CCN(S(=O)(=O)c4ccccc4)[C@@H]3C2=O)cc1 [CBK289285] | 107 |
| CN(Cc1ccccc1)c1nc2c(c(=O)n(C)c(=O)n2C)n1CCSc1ncccn1 [CBK269564] | 97.7 |
| Cc1nn2c(N)ncnc2c1-c1ccc(Cl)cc1 [CBK287880] | 68.8 |
| C[C@@H](c1ccccc1)n1c(=O)[nH]c2ncc(-c3cccc(/C=C/C(=O)O)c3)nc21 [CBK065040] | 106 |
| O=C(O)CN1C(=O)/C(=C2/C(=O)N(Cc3ccccc3Cl)c3ccccc32)SC1=S [CBK265570] | 95.6 |
| CCn1c2cc(C)sc2c2cnn(CC(=O)NC(C)(C)C)c(=O)c21 [CBK284152] | 92.5 |

| Structure (SMILES) | viability at 28.5 h, 10 µM [%] |
| --- | --- |
| O=C(CSCc1c(Cl)cccc1Cl)Nc1ccc(S(=O)(=O)N2CCOCC2)cc1 [CBK266276] | 109 |
| O=C(O)c1cccc(C(=O)c2cccc(C(=O)O)c2)c1 [CBK263933] | 99.1 |
| CC(=O)NCCc1ccc(S(=O)(=O)N2CCN(Cc3ccccc3)CC2)cc1 [CBK268458] | 94.8 |
| O=C(NCCSCc1c(F)cccc1Cl)Nc1cccc(Cl)c1 [CBK268574] | 98.6 |
| O=C(O)c1ccnc2ccccc12 [CBK012261] | 88.2 |
| O=C(C1=C(O)C(=O)N(CCCn2ccnc2)C1c1cccc([N+](=O)[O-])c1)c1ccc(F)cc1 (stereo not shown) [CBK264571] | 97.8 |
| CCC1(CC)OC(NCc2ccccc2)=NC1=O [CBK122636] | 86.2 |
| CCCCc1ccc(-c2ccc(-c3cc(C(=O)O)c4cc(C)ccc4n3)o2)cc1 [CBK300528] | 94 |
| CCCOc1c(Cl)cc(/C=C2\N=C(c3ccc(OC)cc3)OC2=O)cc1OCC [CBK098846] | 93.3 |
| O=C1C2(c3ccccc3)CN(CCCO)CC1(c1ccccc1)CN(CCCO)C2 [CBK265912] | 109 |
| COCCNc1cc(-c2ccccc2N(C)C)ncn1 [CBK090790] | 109 |
| Cn1cc(C2CCCCCN2Cc2cc(Cl)ccc2O)cn1 (stereo not shown) [CBK282941] | 100 |
| O=C(c1ncoc1-c1ccc(F)cc1)N1CCSCC1 [CBK282380] | 105 |
| COc1cccc2sc(NC(=O)Cc3ccccc3)nc12 [CBK149284] | 103 |
| CC(C)(C)OC(=O)N1CCC[C@]2(CCC(=O)N2)[C@H]1c1cccc(F)c1 [CBK283463] | 96.7 |
| O=C(O)CCSc1ccnc2ccccc12 [CBK122524C] | 93.2 |
| CC1CCc2c(sc(NC(=O)COc3ccccc3)c2C(=O)Nc2ccccc2Cl)C1 (stereo not shown) [CBK263044] | 101 |
| O=C(NCc1ccc(-c2nc3ncccc3o2)cc1)c1ccc(F)cc1 [CBK270182] | 91.3 |
| Cn1cc(CNC(=O)Nc2cccc(CN3CCCCC3=O)c2)cn1 [CBK305062] | 91.4 |
| Cc1csc2c(N3CCC(NCCc4ccnn4C)CC3)ncnc12 [CBK307515] | 89.8 |
| O=C(O)c1ccc2[nH]c(=O)[nH]c2c1 [CBK032631] | 81.3 |
